Results from article PMC5999115, “Anti-tumor activity of phenoxybenzamine and its inhibition of histone deacetylases” (PLoS ONE, 2018).

Assays:
[1] = tested on: LXFA NCI-H522; experiment: Oncotest CellTiter-Blue cell viability assay, 72 hours; type: cell-based, human
Procedure: (§1) Further studies with varying drug concentrations on selected human cell lines, in most cases those studied in the NCI60 screen, were conducted by Oncotest GmbH laboratories, Freiburg, Germany; Oncotest is a division of Charles River Laboratories. The dissolution procedure for PBZ and the cell culture […] was 72 hours; anti-tumor activity was determined with the CellTiter-Blue® Cell Viability Assay, Promega, Mannheim, Germany. The 50% Inhibitory (IC50) concentrations were determined. The results are the average of duplicate assays. Paclitaxel was included as a reference compound to confirm the integrity of the assays. See S1 Appendix for further details.
(§2) “Cell lines were routinely passaged once or twice weekly and maintained in culture for up to 20 passages. Cells were grown at 37°C in a humidified atmosphere with 5% CO2 in RPMI 1640 medium (25 mM HEPES, with L-glutamine, #FG1385, Biochrom, Berlin, Germany) supplemented with 10% (v/v) fetal calf serum (Sigma, Taufkirchen, Germany) and 0.1 mg/mL gentamicin (Life Technologies, Karlsruhe, Germany).”

[2] = tested on: OVXF OVCAR-8; experiment: as above; type: cell-based, human
Procedure: as §1, §2

[3] = LXFA NCI-H522, 1% FCS, study P495C
[4] = LXFA NCI-H522, 10% FCS, study P495A
[5] = LXFA NCI-H522, 10% FCS, study P495B
[6] = OVXF OVCAR-8, 1% FCS, study P495C
[7] = OVXF OVCAR-8, 10% FCS, study P495A
[8] = OVXF OVCAR-8, 10% FCS, study P495B

With `CC(COc1ccccc1)N(CCCl)Cc1ccccc1` (centres unmarked) [PBZ, phenoxybenzamine] the “Percent cell growth in Oncotest screen with 10% FCS (72 hr incubation)” value ([1]; 10 μM phenoxybenzamine, NCI-H522) was 108%, the IC50 ([1]; Homo sapiens, LXFA NCI-H522 Non-small-cell lung, 1% FCS) was 51.5 µM and the “Test/Control (%) at Drug Concentration [uM] 1,0E+00” value (“Test/Control (%) … [uM] 1,0E+00” for short) [1, 3] was 99%. For the same compound, the “Test/Control (%) at Drug Concentration [uM] 1,0E+01” value (“Test/Control (%) … [uM] 1,0E+01” for short) [1, 3] was 99%, the “Test/Control (%) at Drug Concentration [uM] 1,0E+02” value (“Test/Control (%) … [uM] 1,0E+02” for short) [1, 3] was 6% and the “Test/Control (%) at Drug Concentration [uM] 3,2E+00” value (“Test/Control (%) … [uM] 3,2E+00” for short) [1, 3] was 106%. For the same compound, the “Test/Control (%) at Drug Concentration [uM] 3,2E+01” value (“Test/Control (%) … [uM] 3,2E+01” for short) [1, 3] was 89%, the “Test/Control (%) … [uM] 1,0E+00” value [1, 4] was 99% and the “Test/Control (%) … [uM] 1,0E+01” value [1, 4] was 108%. For the same compound, the “Test/Control (%) … [uM] 1,0E+02” value [1, 4] was 14%, the “Test/Control (%) at Drug Concentration [uM] 1,0E-01” value (“Test/Control (%) … [uM] 1,0E-01” for short) [1, 4] was 96% and the “Test/Control (%) at Drug Concentration [uM] 1,0E-02” value (shortened to “Test/Control (%) … [uM] 1,0E-02”) [1, 4] was 81%. The “Test/Control (%) … [uM] 3,2E+00” value [1, 4] was 107%, the “Test/Control (%) … [uM] 3,2E+01” value [1, 4] was 110% and the “Test/Control (%) at Drug Concentration [uM] 3,2E-01” value [1, 4] was 98%. For the same compound, the “Test/Control (%) at Drug Concentration [uM] 3,2E-02” value [1, 4] was 82%, the “Test/Control (%) at Drug Concentration [uM] 3,2E-03” value [1, 4] was 76% and the “Test/Control (%) … [uM] 1,0E+00” value [1, 5] was 100%. For the same compound, the “Test/Control (%) … [uM] 1,0E+01” value [1, 5] was 93%, the “Test/Control (%) … [uM] 1,0E+02” value [1, 5] was 29% and the “Test/Control (%) … [uM] 1,0E-01” value [1, 5] was 100%. The “Test/Control (%) … [uM] 1,0E-02” value [1, 5] was 100%, the “Test/Control (%) at Drug Concentration [uM] 1,0E-03” value [1, 5] was 100% and the “Test/Control (%) … [uM] 3,2E+00” value [1, 5] was 100%. The “Test/Control (%) … [uM] 3,2E+01” value [1, 5] was 97%, the “Percent cell growth in Oncotest screen with 10% FCS (72 hr incubation)” value ([2]; 10 μM phenoxybenzamine, OVCAR-8) was 90% and the IC50 ([2]; Homo sapiens, OVXF OVCAR-8 Ovarian, 1% FCS) was 31.9 µM. The “Test/Control (%) … [uM] 1,0E+00” value [2, 6] was 102%, the “Test/Control (%) … [uM] 1,0E+01” value [2, 6] was 100% and the “Test/Control (%) … [uM] 1,0E+02” value [2, 6] was 22%. The “Test/Control (%) … [uM] 3,2E+00” value [2, 6] was 104%, the “Test/Control (%) … [uM] 3,2E+01” value [2, 6] was 61% and the “Test/Control (%) … [uM] 1,0E+00” value [2, 7] was 84%. The “Test/Control (%) … [uM] 1,0E+01” value [2, 7] was 90%, the “Test/Control (%) … [uM] 1,0E+02” value [2, 7] was 67% and the “Test/Control (%) … [uM] 1,0E-01” value [2, 7] was 85%. For the same compound, the “Test/Control (%) … [uM] 1,0E-02” value [2, 7] was 90%, the “Test/Control (%) … [uM] 3,2E+00” value [2, 7] was 92% and the “Test/Control (%) … [uM] 3,2E+01” value [2, 7] was 96%. For the same compound, the “Test/Control (%) at Drug Concentration [uM] 3,2E-01” value [2, 7] was 86%, the “Test/Control (%) at Drug Concentration [uM] 3,2E-02” value [2, 7] was 86% and the “Test/Control (%) at Drug Concentration [uM] 3,2E-03” value [2, 7] was 84%. For the same compound, the “Test/Control (%) … [uM] 1,0E+00” value [2, 8] was 89%, the “Test/Control (%) … [uM] 1,0E+01” value [2, 8] was 82% and the “Test/Control (%) … [uM] 1,0E+02” value [2, 8] was 32%. The “Test/Control (%) … [uM] 1,0E-01” value [2, 8] was 86%, the “Test/Control (%) … [uM] 1,0E-02” value [2, 8] was 90% and the “Test/Control (%) at Drug Concentration [uM] 1,0E-03” value [2, 8] was 92%. For the same compound, the “Test/Control (%) … [uM] 3,2E+00” value [2, 8] was 84% and the “Test/Control (%) … [uM] 3,2E+01” value [2, 8] was 74%.
